Structures can show the parent of a compound that is named as a salt. Where two headings read alike, the source gives them in different places.

Usually logP stands for a log measure of how a compound divides between an organic and an aqueous phase. In general, pKa refers to the negative logarithm of the acid dissociation constant.

For series [1] the following is noted: at RT; cited from earlier work.
The conditions of series [2]: cited from earlier work; for pKa (acidic): first pKa (acidic) column; for Solubility (Aq): in words.
The conditions of series [3]: male, bovine, pH 7.4.
The conditions of series [4]: rabbit.
The conditions of series [5]: horse.
The nature of series [6]: Moxidectin skin deposition study. It is filed as in vitro ADME, bovine. Particulars: 72 hours. Here is the method:
The amount of moxidectin accumulating in the bovine skin was determined using whole skin thickness (approx. […]) and split skin thickness (approx. […]) after 72 hours. The skin tissue was physically broken down using a Gentle MACS dissociator (Miltenyi Biotec GmbH, Germany) with 5 mL of methanol added into each sample. The dissociator setting was RNA-02.01 with M-type tubes for 90 seconds. Centrifuged samples had the supernatant collected and diluted 2 times with ACN before being analysed by the HPLC method.

Series [7] in a line: Stability of test composition with surfactants (phase separation, crystals). It is filed as physicochemical. Particulars: surfactant added to test composition (Table 5); room temperature (24±1° C.). Here is the method:
The purpose of this study was to examine the stability of the formula which may comprise surface active agents such as surfactants. […] Three temperatures (RT, 4.5° C. and −20° C.) were used to monitor for phase separation and/or drug crystal formation every one or two days from 6 days.

Series [8] is described as follows: Solubility of actives in individual solvents.
Excerpt: The purpose of these studies was to identify solvents and co-solvents to optimise solubility of actives and the physical/chemical stability of product.

Consider `CCCCCCCC/C=C\CCCCCCCCOCCOCCO` [Brij 93, polyoxyethylene (2) oleyl ether], for which, in series [1], the HLB is reported as 4.5 ± 0.4.
In the case of `C[C@]12CCC(=O)C=C1CC[C@@H]1[C@@H]2[C@@H](O)C[C@@]2(C)[C@H]1CC[C@]2(O)C(=O)CO` [Hydrocortisone, Hydrocortisone (base)], in series [2], the “pKa (basic)” value is on record as −2.8 and the “pKa (acidic)” value was 12.6.
In the case of `c1ccc([C@H]2CN3CCSC3=N2)cc1` [Lev. Base, levamisole base], the “flux rate of levamisole” value in series [3] (72 h) was found to be 949.6±80.8 μg/cm^2/hr. In series [2], the logP was 1.8, the “pKa (acidic)” value was 8 and the “Solubility (Aq)” value is “Insoluble”. Besides, in series [2] (stated for the basic drug LEV), the pKa is listed as 8.
Turning to `CCN(CC)CCNC(=O)c1cc(Cl)c(N)cc1OC` [Metoclopramide, Metacloprimide HCl], the “Mean (μg/cm2) permeated” value in series [3] (0 h) worked out at 0 μg/cm2; in series [3] (2 h), 16.2 μg/cm2; in series [3] (4 h) it was 251 μg/cm2; in series [3] (6 h), 456 μg/cm2; in series [3] (8 h), 960 μg/cm2; in series [3] (20 h) it was 2188 μg/cm2. Further, the “Mean (μg/cm2) permeated” value came out at 2252 μg/cm2 in series [3] (24 h); 2718 μg/cm2 in series [3] (26 h); 4779 μg/cm2 in series [3] (44 h); 5169 μg/cm2 in series [3] (48 h); 5394 μg/cm2 in series [3] (52 h); 5336 μg/cm2 in series [3] (68 h). Moreover, the “Mean (μg/cm2) permeated” value in series [3] (70 h) is on record as 5613 μg/cm2; in series [3] (72 h), 5346 μg/cm2; in series [4] (0 h) it was 0 μg/cm2; in series [4] (2 h) it was 0 μg/cm2; in series [4] (4 h), 0 μg/cm2; in series [4] (6 h) it was 0 μg/cm2. Moreover, the “Mean (μg/cm2) permeated” value in series [4] (8 h) was 0 μg/cm2; in series [4] (10 h), 32.3 μg/cm2; in series [4] (20 h) it was 685 μg/cm2; in series [4] (24 h), 772 μg/cm2; in series [4] (26 h), 831 μg/cm2; in series [4] (28 h), 925 μg/cm2. Further, the “Mean (μg/cm2) permeated” value was determined as 1537 μg/cm2 in series [4] (44 h); 1612 μg/cm2 in series [4] (46 h); 1567 μg/cm2 in series [4] (48 h); 1782 μg/cm2 in series [4] (50 h); 1968 μg/cm2 in series [4] (52 h); 2391 μg/cm2 in series [4] (68 h). Also, the “Mean (μg/cm2) permeated” value in series [4] (70 h) was 2387 μg/cm2; in series [4] (72 h), 2515 μg/cm2; in series [5] (0 h), 0 μg/cm2; in series [5] (2 h), 0 μg/cm2; in series [5] (4 h), 0 μg/cm2; in series [5] (6 h) it was 0 μg/cm2. The “Mean (μg/cm2) permeated” value amounted to 68.1 μg/cm2 in series [5] (8 h); 679 μg/cm2 in series [5] (10 h); 1372 μg/cm2 in series [5] (20 h); 1533 μg/cm2 in series [5] (24 h); 1477 μg/cm2 in series [5] (26 h); 1640 μg/cm2 in series [5] (28 h). For the same compound, the “Mean (μg/cm2) permeated” value was 2604 μg/cm2 in series [5] (44 h); 2784 μg/cm2 in series [5] (46 h); 2910 μg/cm2 in series [5] (48 h); 2930 μg/cm2 in series [5] (50 h); 3078 μg/cm2 in series [5] (52 h); 3350 μg/cm2 in series [5] (68 h). Besides, the “Mean (μg/cm2) permeated” value in series [5] (70 h) came out at 3440 μg/cm2; in series [5] (72 h), 3454 μg/cm2. The Flux was found to be 109.4±11.8 μg/cm^2/hr in series [3] (58 h); 109 μg/cm^2/hr in series [3] (72 h); 38.6±9.2 μg/cm^2/hr in series [4]; 38.6 μg/cm^2/hr in series [4] (72 h); 67.0±24.6 μg/cm^2/hr in series [5] (24 h); 67.0 μg/cm^2/hr in series [5] (72 h). The APC in series [3] (72 h) worked out at 97.1 cm/s × 10^−8; in series [4] (72 h) it was 45.7 cm/s × 10^−8; in series [5] (72 h) it was 62.7 cm/s × 10^−8. For the same compound, the “Extent 72 h” value in series [3] (72 h) was 5346 μg/cm^2; in series [4] (72 h), 2515 μg/cm^2; in series [5] (72 h), 3454 μg/cm^2. Besides, the “lag T” value came out at 1.07 h in series [3], 4.84 h in series [4] and 3.11 h in series [5].
As for `CO/N=C1\C[C@]2(C[C@@H]3C[C@@H](C/C=C(\C)C[C@@H](C)/C=C/C=C4\CO[C@@H]5[C@H](O)C(C)=C[C@@H](C(=O)O3)[C@]45O)O2)O[C@H](/C(C)=C/C(C)C)[C@H]1C` [Moxidectin, moxidectin], the “flux rate of moxidectin” value in series [3] (72 h) was 475±185.2 ng/cm^2/hr. For the same compound, the “Solubility (Aq)” value in series [2] is on record as “Insoluble”. In addition, in series [6] (500 μm skin), the “proportion of the drug in Donor” value stood at 51%, the “proportion of the drug in Receptor” value is 31% and the “proportion of the drug in Skin” value turned out to be 18%. For the same compound, in series [6] (Whole skin), the “proportion of the drug in Donor” value is 65%, the “proportion of the drug in Receptor” value is 3% and the “proportion of the drug in Skin” value is recorded as 32%.
As to `CCCCCCCC/C=C\CCCCCCCC(=O)OCCOCC(OCCO)C1OCC(OCCO)C1OCCO` (stereo not shown) [Tween 80], the “Stability of test composition, RT” value in series [7] was “S”.
On to Span 60, for which the HLB in series [1] is reported as 4.7.
Regarding Span 80, the HLB in series [1] is listed as 4.3.
For Tocopherol, the HLB in series [1] is 6.0.
On to abamectin, for which the “Maximum Solubility % w/w” value in series [8] (in AGNIQUE AMD 10), in series [8] (in AGNIQUE AMD 810), in series [8] (in Cremophor), in series [8] (in DMSO), in series [8] (in Dipropylenglycol dimethylether) and in series [8] (in Ecoteric T80) was “At least 1 % w/w” in each case. Moreover, the “Maximum Solubility % w/w” value in series [8] (in Glycerol Formal) is given as 19 % w/w; in series [8] (in Isopropyl Mirystate), “At least 1 % w/w”; in series [8] (in Isopropyleneglycol) it was 7 % w/w; in series [8] (in Isosorbide), “At least 1 % w/w”; in series [8] (in PEG400) it was “At least 1 % w/w”; in series [8] (in Polysorbate 20), “At least 1 % w/w”. The “Maximum Solubility % w/w” value in series [8] (in Span 80) is “At least 1 % w/w”; in series [8] (in Tetraglycol) it was 8 % w/w; in series [8] (in Triacetin), 3 % w/w; in series [8] (in Tripropylene glycol methylether (TPGME)), 8 % w/w. Also, the logP in series [2] was 4.4. For the same compound, the “Solubility (Aq)” value in series [2] is recorded as “Insoluble”.

The values are drawn from patent publication US20160008471A1, “TRANSDERMAL FORMULATIONS” (priority 2013, published 2016).
